Literature values in patent US20220401317A1, “HYPOCHLORITE COMPOSITION AND SYSTEM AND METHOD FOR PREPARING A HYPOCHLORITE COMPOSITION AND USE OF THE SAME” (KONINKLIJKE PHILIPS N.V., priority 2019, published 2022).

pKa: 7.53
SMILES: OCl [hypochloric acid]
